Data on 1 compound can be found in patent US20040186166A1, “Cannabinoid analogs as peroxisome proliferator activated nuclear receptor gamma activators” (priority 2002, published 2004).

For experiment [1], the target named is T1, PPARγ / GST-DRIP205 (amino acids 527-970) (Mus musculus, UniProt P37238).
T1 construct: made in house; host or cells: PPARγ1: reticulocyte lysate; GST-DRIP205: E. coli BL21, kept on glutathione-Sepharose beads
Kind of experiment: GST pull-down assay, PPARγ with GST-DRIP205. Format: binding. The following applies: 20 μM AJA. As to the method: The glutathione S-transferase (GST)-DRIP205 (amino acid 527-970) and GST-RAC3 RID (amino acid 613-752) fusion proteins were expressed in BL21 cells by induction with 0.1 mM isopropyl-β-D-thiogalactopyranoside (IPTG) at room temperature for 4 hours. The bacterial pellet was resuspended in STE buffer (150 mM NaCl, 10 mM Tris pH 8.0, 1 mM EDTA), containing 5 mM dithiothreitol (DTT), 1 mM phenylmethlsulfonyl fluoride (PMSF) and 1.5% Sarkosyl. The cell suspension was sonicated and centrifuged at 7400 rpm at 4° C. for 30 minutes. The supernatant was isolated and 0.02% Triton-X 100 was added, and the mixture was then incubated with 1 ml 50% slurry of glutathione-Sepharose beads on a rotator at 4° C. for 30 minutes. The beads were spun down at 3000 rpm for 10 minutes, the supernatant was removed, and the beads were suspended in 1 ml cold PBS.
Approximately 5 μg of GST-DRIP205 or GST-RAC3 bound on glutathione-Sepharose beads and 4 μl ^35S-methionine-labeled mPPARγ1 were incubated with the indicated concentrations of AJA, GW347845, or vehicle alone in H buffer (20 mM Hepes [pH 7.7], 75 mM KCl, 0.1 mM EDTA, 2.5 mM MgCl2, 0.05% NP40, 0.1 mM methionine, 1 mM DTT) containing 1 mg/ml bovine serum albumin (BSA) on a rotator at 4° C. overnight. After three washes with cold PBS, the bound protein was eluted in SDS sample buffer and boiled for 10 min before SDS-PAGE and autoradiography. […]

In a further experiment the target is T2, PPARα (Mus musculus, UniProt P23204).
T2 construct: expressed in transfected cells; host or cells: HEK293 / HEK293T
T2 sequence (P23204 1-468): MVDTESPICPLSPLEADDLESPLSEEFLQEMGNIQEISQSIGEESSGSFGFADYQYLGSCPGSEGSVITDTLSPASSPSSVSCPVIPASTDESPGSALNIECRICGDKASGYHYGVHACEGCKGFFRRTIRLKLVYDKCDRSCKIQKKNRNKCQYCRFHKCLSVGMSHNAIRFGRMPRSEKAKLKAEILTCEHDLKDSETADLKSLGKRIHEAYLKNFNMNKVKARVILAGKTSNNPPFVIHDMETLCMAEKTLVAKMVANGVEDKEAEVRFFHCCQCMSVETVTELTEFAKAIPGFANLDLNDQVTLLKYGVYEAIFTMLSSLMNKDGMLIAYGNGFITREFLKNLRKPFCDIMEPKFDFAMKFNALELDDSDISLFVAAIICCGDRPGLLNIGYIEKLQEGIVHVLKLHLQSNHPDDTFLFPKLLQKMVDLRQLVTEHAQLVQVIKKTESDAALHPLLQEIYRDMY
Kind of experiment: Partial protease (trypsin) digestion assay, PPARα. The conditions noted are these: 2, 20 and 100 μM AJA. Format: binding. The method, then:
Partial protease digestion was carried out as described by Leng et. al. (J Steroid Biochem Mol Biol 46:643-61, 1993). PPAR proteins were made by in vitro transcription/translation reactions in reticulocyte lysate according to the manufacture's instructions (Promega). AJA, GW347845, or vehicle alone was incubated with the 35S-labeled PPARs at room temperature for one hour before trypsin digestion. Reactions were stopped by boiling in SDS-containing sample buffer, and lysates were subjected to SDS-PAGE and autoradiography.
The PPAR proteins were synthesized and labeled with ^35S-methionine in reticulocyte lysate and incubated with AJA, GW347845, or vehicle alone at room temperature for one hour before trypsin digestion. The reactions were terminated by boiling in SDS-containing protein sample buffer. The proteolytic patterns of PPAR proteins were then analyzed by SDS-PAGE and autoradiography, and compared with vehicle-treated control samples.
The AJA concentrations required to protect PPARγ from trypsin digestion were further measured.

The conditions of experiment [2]: mouse tail clip assay, cited from earlier work.

T1 sequence (P37238 31-505): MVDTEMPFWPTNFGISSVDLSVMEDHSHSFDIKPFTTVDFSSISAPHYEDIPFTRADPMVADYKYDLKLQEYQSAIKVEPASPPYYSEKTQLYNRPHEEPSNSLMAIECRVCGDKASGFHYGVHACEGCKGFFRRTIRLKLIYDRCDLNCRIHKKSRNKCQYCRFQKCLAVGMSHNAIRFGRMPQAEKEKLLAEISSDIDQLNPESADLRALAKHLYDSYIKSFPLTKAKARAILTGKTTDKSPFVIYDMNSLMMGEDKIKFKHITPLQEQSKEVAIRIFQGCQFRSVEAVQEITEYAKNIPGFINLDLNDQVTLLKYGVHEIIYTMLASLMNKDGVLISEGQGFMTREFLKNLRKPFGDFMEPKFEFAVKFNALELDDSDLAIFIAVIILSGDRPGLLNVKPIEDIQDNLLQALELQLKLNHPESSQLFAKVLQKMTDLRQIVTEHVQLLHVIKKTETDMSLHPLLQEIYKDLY
T1 sequence (Q15648 527-970 partner limits assumed): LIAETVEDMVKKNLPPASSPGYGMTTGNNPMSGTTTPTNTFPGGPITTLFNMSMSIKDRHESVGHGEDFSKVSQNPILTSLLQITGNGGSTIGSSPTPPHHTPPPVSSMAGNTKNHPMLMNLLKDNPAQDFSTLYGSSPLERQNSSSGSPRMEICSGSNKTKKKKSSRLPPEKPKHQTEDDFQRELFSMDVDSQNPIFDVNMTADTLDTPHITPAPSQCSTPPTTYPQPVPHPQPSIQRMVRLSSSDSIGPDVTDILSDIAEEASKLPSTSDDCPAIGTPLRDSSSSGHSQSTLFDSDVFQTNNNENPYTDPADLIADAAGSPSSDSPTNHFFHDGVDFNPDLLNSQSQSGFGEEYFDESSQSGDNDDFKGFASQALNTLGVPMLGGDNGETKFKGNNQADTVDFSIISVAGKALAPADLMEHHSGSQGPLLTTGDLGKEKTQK

As for `CCCCCCC(C)(C)c1cc(O)c2c(c1)OC(C)(C)[C@@H]1CC=C(C(=O)O)C[C@@H]21` [AJA, dimethylheptyl-THC-11-oic acid], the “binding of PPARγ to GST-DRIP205” value in experiment [1] is recorded as “increased binding”. Also, the “proteinase sensitivity of PPARα” value on PPARα is “did not affect the proteinase sensitivity”. Further, the analgesic function result in experiment [2] (Dajani et al. 1999) is given as “potent analgesic function comparable with morphine”. Besides, in experiment [2] (compared with morphine), the “duration of analgesic effect” value is reported as “lasted even longer than morphin”.
